Data reported in the supplement of paper PMC10307832.

Legend:
Assay in all cases: relative viability (nuclei count vs DMSO), 5 days (fraction); higher = more cells survive
COR-L23 = test system: COR-L23
Outline: (§1)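 Medians of duplicate plates are given as relative viability. That measure is the nuclei count in treated wells divided by the count in vehicle wells. Counts were taken on 4× images of lung cancer cell lines in 1536-well plates, 5 days after pin-tool dosing the day after seeding with one drug alone or a fixed anchor-drug dose plus five library-drug doses (not always all listed) in √10 steps.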

ChaGo-K-1 = test system: ChaGo-K-1
Outline: as §1

EPLC-272H = test system: EPLC-272H
Outline: as §1

H3255 = test system: H3255
Outline: as §1

HARA = test system: HARA
Outline: as §1

HCC-78 = test system: HCC-78
Outline: as §1

HOP-62 = test system: HOP-62
Outline: as §1

LCLC-97TM1 = test system: LCLC-97TM1
Outline: as §1

LXF-289 = test system: LXF-289
Outline: as §1

NCI-H1395 = test system: NCI-H1395
Outline: as §1

NCI-H1437 = test system: NCI-H1437
Outline: as §1

NCI-H1650 = test system: NCI-H1650
Outline: as §1

NCI-H1666 = test system: NCI-H1666
Outline: as §1

NCI-H1793 = test system: NCI-H1793
Outline: as §1

NCI-H1944 = test system: NCI-H1944
Outline: as §1

NCI-H2085 = test system: NCI-H2085
Outline: as §1

NCI-H2087 = test system: NCI-H2087
Outline: as §1

NCI-H2126 = test system: NCI-H2126
Outline: as §1

NCI-H3122 = test system: NCI-H3122
Outline: as §1

NCI-H441 = test system: NCI-H441
Outline: as §1

NCI-H596 = test system: NCI-H596
Outline: as §1

NCI-H661 = test system: NCI-H661
Outline: as §1

PC-14 = test system: PC-14
Outline: as §1

## Cc1cn(-c2cc(NC(=O)c3ccc(C)c(Nc4nccc(-c5cccnc5)n4)c3)cc(C(F)(F)F)c2)cn1 [Nilotinib] + COc1cccc2cc(-c3nc([C@H]4CC[C@H](C(=O)O)CC4)n4ncnc(N)c34)[nH]c12 [OSI-027] (partner 0.5 µM)
COR-L23; first compound 0.001 µM
  relative viability: 0.622
COR-L23; first compound 0.003162 µM
  relative viability: 0.957
COR-L23; first compound 0.01 µM
  relative viability: 0.92
COR-L23; first compound 0.03162 µM
  relative viability: 0.462
COR-L23; first compound 0.1 µM
  relative viability: 0.596
ChaGo-K-1; first compound 0.001 µM
  relative viability: 0.49
ChaGo-K-1; first compound 0.003162 µM
  relative viability: 0.643
ChaGo-K-1; first compound 0.01 µM
  relative viability: 0.485
ChaGo-K-1; first compound 0.03162 µM
  relative viability: 0.471
ChaGo-K-1; first compound 0.1 µM
  relative viability: 0.274
EPLC-272H; first compound 0.001 µM
  relative viability: 0.24
EPLC-272H; first compound 0.003162 µM
  relative viability: 0.275
EPLC-272H; first compound 0.01 µM
  relative viability: 0.325
EPLC-272H; first compound 0.03162 µM
  relative viability: 0.246
EPLC-272H; first compound 0.1 µM
  relative viability: 0.177
H3255; first compound 0.001 µM
  relative viability: 0.547
H3255; first compound 0.003162 µM
  relative viability: 0.566
H3255; first compound 0.03162 µM
  relative viability: 0.501
H3255; first compound 0.1 µM
  relative viability: 0.621
HARA; first compound 0.001 µM
  relative viability: 0.523
HARA; first compound 0.003162 µM
  relative viability: 0.633
HARA; first compound 0.01 µM
  relative viability: 0.469
HARA; first compound 0.03162 µM
  relative viability: 0.179
HARA; first compound 0.1 µM
  relative viability: 0.231
HCC-78; first compound 0.001 µM
  relative viability: 0.444
HCC-78; first compound 0.003162 µM
  relative viability: 0.368
HCC-78; first compound 0.01 µM
  relative viability: 0.352
HCC-78; first compound 0.03162 µM
  relative viability: 0.373
HCC-78; first compound 0.1 µM
  relative viability: 0.403
HOP-62; first compound 0.001 µM
  relative viability: 0.699
HOP-62; first compound 0.003162 µM
  relative viability: 0.831
HOP-62; first compound 0.01 µM
  relative viability: 0.909
HOP-62; first compound 0.03162 µM
  relative viability: 0.581
HOP-62; first compound 0.1 µM
  relative viability: 0.559
LCLC-97TM1; first compound 0.001 µM
  relative viability: 0.552
LCLC-97TM1; first compound 0.003162 µM
  relative viability: 0.559
LCLC-97TM1; first compound 0.01 µM
  relative viability: 0.479
LCLC-97TM1; first compound 0.03162 µM
  relative viability: 0.432
LCLC-97TM1; first compound 0.1 µM
  relative viability: 0.467
LXF-289; first compound 0.001 µM
  relative viability: 0.807
LXF-289; first compound 0.003162 µM
  relative viability: 0.965
LXF-289; first compound 0.01 µM
  relative viability: 0.94
LXF-289; first compound 0.03162 µM
  relative viability: 0.826
LXF-289; first compound 0.1 µM
  relative viability: 0.532
NCI-H1395; first compound 0.001 µM
  relative viability: 0.673
NCI-H1395; first compound 0.003162 µM
  relative viability: 0.467
NCI-H1395; first compound 0.01 µM
  relative viability: 0.579
NCI-H1395; first compound 0.03162 µM
  relative viability: 0.612
NCI-H1395; first compound 0.1 µM
  relative viability: 0.416
NCI-H1437; first compound 0.001 µM
  relative viability: 0.826
NCI-H1437; first compound 0.003162 µM
  relative viability: 0.815
NCI-H1437; first compound 0.01 µM
  relative viability: 0.876
NCI-H1437; first compound 0.03162 µM
  relative viability: 0.619
NCI-H1437; first compound 0.1 µM
  relative viability: 0.902
NCI-H1650; first compound 0.001 µM
  relative viability: 0.691
NCI-H1650; first compound 0.003162 µM
  relative viability: 0.792
NCI-H1650; first compound 0.01 µM
  relative viability: 0.569
NCI-H1650; first compound 0.03162 µM
  relative viability: 0.464
NCI-H1650; first compound 0.1 µM
  relative viability: 0.426
NCI-H1666; first compound 0.001 µM
  relative viability: 0.823
NCI-H1666; first compound 0.003162 µM
  relative viability: 0.846
NCI-H1666; first compound 0.01 µM
  relative viability: 0.879
NCI-H1666; first compound 0.03162 µM
  relative viability: 0.753
NCI-H1666; first compound 0.1 µM
  relative viability: 0.899
NCI-H1793; first compound 0.001 µM
  relative viability: 0.269
NCI-H1793; first compound 0.003162 µM
  relative viability: 0.261
NCI-H1793; first compound 0.01 µM
  relative viability: 0.223
NCI-H1793; first compound 0.03162 µM
  relative viability: 0.188
NCI-H1793; first compound 0.1 µM
  relative viability: 0.173
NCI-H1944; first compound 0.001 µM
  relative viability: 0.418
NCI-H1944; first compound 0.003162 µM
  relative viability: 0.407
NCI-H1944; first compound 0.01 µM
  relative viability: 0.367
NCI-H1944; first compound 0.03162 µM
  relative viability: 0.324
NCI-H2085; first compound 0.001 µM
  relative viability: 0.695
NCI-H2085; first compound 0.003162 µM
  relative viability: 0.549
NCI-H2085; first compound 0.01 µM
  relative viability: 0.699
NCI-H2085; first compound 0.03162 µM
  relative viability: 0.428
NCI-H2085; first compound 0.1 µM
  relative viability: 0.467
NCI-H2087; first compound 0.001 µM
  relative viability: 0.477
NCI-H2087; first compound 0.003162 µM
  relative viability: 0.557
NCI-H2087; first compound 0.01 µM
  relative viability: 0.499
NCI-H2087; first compound 0.03162 µM
  relative viability: 0.221
NCI-H2087; first compound 0.1 µM
  relative viability: 0.239
NCI-H2126; first compound 0.001 µM
  relative viability: 0.673
NCI-H2126; first compound 0.003162 µM
  relative viability: 0.706
NCI-H2126; first compound 0.01 µM
  relative viability: 0.572
NCI-H2126; first compound 0.03162 µM
  relative viability: 0.582
NCI-H2126; first compound 0.1 µM
  relative viability: 0.544
NCI-H3122; first compound 0.001 µM
  relative viability: 0.961
NCI-H3122; first compound 0.003162 µM
  relative viability: 1.33
NCI-H3122; first compound 0.01 µM
  relative viability: 1.24
NCI-H3122; first compound 0.03162 µM
  relative viability: 0.66
NCI-H3122; first compound 0.1 µM
  relative viability: 0.467
NCI-H441; first compound 0.001 µM
  relative viability: 0.524
NCI-H441; first compound 0.003162 µM
  relative viability: 0.743
NCI-H441; first compound 0.01 µM
  relative viability: 0.52
NCI-H441; first compound 0.03162 µM
  relative viability: 0.499
NCI-H441; first compound 0.1 µM
  relative viability: 0.483
NCI-H596; first compound 0.001 µM
  relative viability: 0.725
NCI-H596; first compound 0.003162 µM
  relative viability: 0.655
NCI-H596; first compound 0.01 µM
  relative viability: 0.57
NCI-H596; first compound 0.03162 µM
  relative viability: 0.306
NCI-H596; first compound 0.1 µM
  relative viability: 0.415
NCI-H661; first compound 0.001 µM
  relative viability: 0.672
NCI-H661; first compound 0.003162 µM
  relative viability: 0.69
NCI-H661; first compound 0.03162 µM
  relative viability: 0.538
NCI-H661; first compound 0.1 µM
  relative viability: 0.634
PC-14; first compound 0.001 µM
  relative viability: 0.611
PC-14; first compound 0.003162 µM
  relative viability: 1.03
PC-14; first compound 0.01 µM
  relative viability: 0.846
PC-14; first compound 0.03162 µM
  relative viability: 0.312
PC-14; first compound 0.1 µM
  relative viability: 0.254
